The results in this text go back to PMC2778273 (Biochimica et biophysica acta, 2008).

The target in this assay is Clitocybe nebularis lectin (CNL) (Clitocybe nebularis, UniProt B2ZRS9). Put plainly: hemagglutination inhibition assay, human group A erythrocytes. The note with it: CNL 18.6 µg/ml; 20 mM Tris/HCl, 130 mM NaCl, pH 7.5; room temperature.

Converted amounts (≈) assume the structure as drawn.

Sequence of Clitocybe nebularis lectin (CNL) (B2ZRS9 2-149): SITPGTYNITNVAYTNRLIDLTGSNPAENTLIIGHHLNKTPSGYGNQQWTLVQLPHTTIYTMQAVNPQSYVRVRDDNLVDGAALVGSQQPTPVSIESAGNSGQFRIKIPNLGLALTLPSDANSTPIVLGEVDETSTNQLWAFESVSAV

`OC[C@H]1O[C@@H](O[C@H]2[C@H](O)[C@@H](O)C(O)O[C@@H]2CO)[C@H](O)[C@@H](O)[C@H]1O` (stereo partly shown) [lactose]: the minimum inhibitory concentration amounted to 4.65 mM (≈ 1590 µg/mL).
